# Laboratory results published in patent US6107070A, “Human manganese superoxide dismutase proteins” (University of Florida, priority 1998, dated 2000).
# Residue numbers refer to the chain shown, from its start. Where two headings read alike, the source gives them in different places.
# Assays:
# [1] = target: T1, human manganese superoxide dismutase (hMn SOD) variant Y34F (Tyr 34 replaced by Phe) (Homo sapiens, UniProt P04179, Y58F); test: Decay of superoxide catalyzed by Y34F hMnSOD, pulse radiolysis; assay type: biochemical
# T1 construct: as a mature protein tagged with an extra Met at the amino terminus; made in house; host or cells: E. coli QC774 (SodA/SodB mutant), pTrc99A
# T1 sequence (P04179 25-222 Y58F): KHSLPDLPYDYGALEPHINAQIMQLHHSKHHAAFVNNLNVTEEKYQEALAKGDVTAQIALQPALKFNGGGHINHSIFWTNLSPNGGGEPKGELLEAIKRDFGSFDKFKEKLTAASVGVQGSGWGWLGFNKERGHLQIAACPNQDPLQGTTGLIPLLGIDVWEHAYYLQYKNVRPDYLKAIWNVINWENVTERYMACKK
# Method: Experiments were carried out at the Center for Fast Kinetics Research at the University of Texas at Austin using a 4-Mev van der Graaff accelerator. A single high-dose electron pulse was used to generate superoxide radical anions from oxygen in acqueous solutions containing 10 mM sodium formate as hydroxyl radical scavenger (Schwartz, 1981) and 50 μM EDTA in addition to buffer and enzyme. All pulse radiolysis experiments were carried out at 20 ° C. The dismutation of O2^- was followed spectrophotometrically from its absorbance at 250 nm (ε=2000M^1 cm^1, Rabani and Nielson, 1969) with a path length of 2.5 cm. Progress curves for each set of 6 to 9 experiments were averaged. Exposure to ultraviolet radiation was minimized by opening a mechanical shutter a fraction of a second before each pulse.
# The kinetic mechanism of FIG. 8 used to describe the wild-type MnSOD can also describe catalysis by Y34F Mn SOD (FIG. 7), as shown by pulse radiolysis. […] In this stimulation, the breakdown of the enzyme-substrate complex for enzyme in the reduced state, represented by k3 in the scheme of FIG. 8, is much slower for Y34F compared with wild-type, whereas the values of k3 are the same for both enzymes. […] The rate constants in Y34F for actual formation of the dead-end complex itself, k5 and k5 are quite similar to those for wild-type.
# [2] = target: T2, human manganese superoxide dismutase (hMn SOD), wild type, SEQ ID NO:2 (Homo sapiens, UniProt P04179); details: cited from earlier work
# T2 construct: where it is then cleaved off leaving the mature protein
# T2 sequence (P04179 25-222): T1 sequence (P04179 25-222 Y58F) with F34Y
# [3] = target: T3, human manganese superoxide dismutase (hMn SOD) variant H30S (His 30 replaced by Ser) (Homo sapiens, UniProt P04179, H54S); test: Disproportionation of superoxide by H30S hMnSOD, stopped-flow, 20° C.; assay type: biochemical; details: pH 9.6, 20° C.
# T3 construct: as a mature protein tagged with an extra Met at the amino terminus; made in house
# T3 sequence (P04179 25-222 H54S): T1 sequence (P04179 25-222 Y58F) with H30S, F34Y
# Method: Experiments were based on the stabilization of KO2 in aprotic solvent and the subsequent large dilution of this solution by an aqueous solution of enzyme in a stopped-flow apparatus, as described by McClune and Fee (1978). KO2 was dissolved in a mixture of dimethyl sulfoxide and […] (2:1 by volume; Aldrich, spectrophotometric grade) with solubility of KO2 enhanced with 18-crown-6 (Valentine and Curtis, 1975). The stopped-flow spectrophotometer (Kinetic Instruments, Ann Arbor, Mich.) was capable of efficient mixing of this solution with an acqueous solution of enzyme in buffer with a dead time between 1.5 and 2.0 ms. One drive syringe (capacity 50 μl) contained the aprotic solution of O2. This was diluted fifty-fold by the contents of a second syringe (capacity 2.5 ml) which contained enzyme, EDTA, and buffer. The decay of superoxide in initial velocity experiments and progress curves was monitored by its absorption at 250 to 300 nm. Stopped-flow experiments were carried out at […]. Four or more kinetic traces were averaged to reduce noise. Steady-state parameters were obtained by least-squares analysis of such data (Leatherbarrow (1987) "Enzfitter: a nonlinear regression data analysis program for the IBM PC" Elsevier BIOSOFT, Cambridge).
# In the present study, several novel hMnSOD proteins containing substitutions of His 30 (referring to the amino acid sequence of SEQ ID NO:2) were prepared by PCR site directed mutagenesis and purified by column chromatography, as described in the Materials and Methods section above, and as also described by Hsu et al. (1996) J. Biol. Chem. 271: 1768; and Hsieh et al. (1998) Biochemistry 37: 4731. In particular, His 30 was substituted with each of Ala, Asn, Ser and Gln. The resulting novel hMnSOD proteins containing a His 30 substitution were then assayed for enzymatic activity and product inhibition at 20° C. by measuring the absorbance of superoxide at 250 nm using stopped-flow spectrophotometry, as described above in the Materials and Methods section. […]
# [4] = Table 1, pulse radiolysis, 20° C., pH 9.6 (Guan et al., 1997)
# [5] = Table 3, KINSIM fit to pulse radiolysis data, 20° C., pH 9.6
# [6] = Table 1, pulse radiolysis, 20° C., pH 9.6 (Hsu et al., 1996)
# [7] = Table 2, KINSIM fit of FIG. 8 scheme to pulse radiolysis data, 20° C., pH 9.6
smiles,measurement,setting,value
[O]O [superoxide],kcat,[1]; [4],3.3 ms^-1
same,kcat /km,[1]; [4],8.7e+08 M⁻¹ s⁻¹
same,k1,[1]; [5],1000 s⁻¹
same,k2,[1]; [5],5000 s⁻¹
same,k4,[1]; [5],1000 M⁻¹ s⁻¹
same,k5,[1]; [5],200 s⁻¹
same,k-1,[1]; [5],2e+09 M⁻¹ s⁻¹
same,k-3,[1]; [5],2e+09 M⁻¹ s⁻¹
same,k-4,[1]; [5],10000 s⁻¹
same,k-5,[1]; [5],2 × 10^4
same,kcat /km (diffusion controlled),[1]; approximate value,~10^9 M^-1 s^-1
same,Km,[1]; obtained from Table 3 data and eqs 5-9 of Bull et al. (1991),4 µM
same,kcat,[2]; [6],40 ms^-1
same,kcat /km,[2]; [6],8e+08 M⁻¹ s⁻¹
same,k1,[2]; [7],2e+09 M⁻¹ s⁻¹
same,k3,[2]; [7],2e+09 M⁻¹ s⁻¹
same,k4,[2]; [7],80000 s⁻¹
same,k-1,[2]; [7],20000 s⁻¹
same,k-3,[2]; [7],20000 s⁻¹
same,k-4,[2]; [7],300 M⁻¹ s⁻¹
same,k-5,"[2]; Table 2, KINSIM fit, dead-end complex, 20° C., pH 9.6",130 s⁻¹
same,k5,"[2]; Table 2, KINSIM fit, formation of dead-end complex, 20° C., pH 9.6",20000 s⁻¹
same,k1,[2]; [5],20000 s⁻¹
same,k3,[2]; [5],20000 s⁻¹
same,k4,[2]; [5],300 M⁻¹ s⁻¹
same,k5,[2]; [5],130 s⁻¹
same,k-1,[2]; [5],2e+09 M⁻¹ s⁻¹
same,k-3,[2]; [5],2e+09 M⁻¹ s⁻¹
same,k-4,[2]; [5],80000 s⁻¹
same,k-5,[2]; [5],2 × 10^4
same,k2,"[2]; Tables 2 and 3, KINSIM fit of FIG. 8 scheme to pulse radiolysis data, 20° C., pH 9.6",80000 s⁻¹
same,kcat /km (diffusion controlled),[2]; approximate value,~10^9 M^-1 s^-1
same,kcat /Km,"[2]; pH 9.6, 20° C. (Hsu et al., 1996)",8e+08 M⁻¹ s⁻¹
same,kcat,[3]; Table 4,1.8 ms^.1
same,kcat /Km,[3]; Table 4,170 μM^.1 S^.1
same,ko /[E] (rate constant for the zero-order region of catalysis),[3]; Table 5,"1,000 S^.1"
